The values that follow come from US20250222116A1, “PARP-1 DEGRADATION AGENT AND USE THEREOF” (XIZANG HAISCO PHARMACEUTICAL CO., LTD., priority 2021, published 2025).

The structures appear in SMILES notation. Where two headings read alike, the source gives them in different places.

This assay concerns breast tumor cells MDA-MB-436. The experiment in a line: MDA-MB-436 cell activity test (CellTiter-Glo, 7 days). The format is cell-based, human. Conditions: for IC50: 7 days incubation, read-out: IC50 (nM), MDA-MB-436 cell inhibitory activity; for inhibition at 10 µM: MDA-MB-436, MDA-MB-436 cells, read-out: Max inh. % 10 μM. On the procedure: Breast tumor cells MDA-MB-436 were purchased from ATCC, the culture medium was Leibovitz's L-15+10% FBS, and the cells were cultured in a CO2-free incubator at 37° C. On day 1, the cells in the exponential growth phase were collected, and the cell suspension was adjusted to 4000 cells/135 μL with the culture medium. 135 μL of the cell suspension was added to each well of a 96-well cell culture plate and incubated overnight. On day 2, compounds at different concentrations were added, and the plate was placed in the incubator and incubated for 7 days. After the culture was completed, according to operation instructions for a CellTiter-Glo kit (Promega, G7573), 75 μL of CTG solution, which was already pre-melted and equilibrated to room temperature, was added to each well, and the mixture was uniformly mixed for 2 minutes using a microplate shaker. The plate was placed at room temperature for 10 minutes, and then […] signal values were determined using an Envision2104 plate reader (PerkinElmer). The inhibition rate was calculated using formula (1), where RLUcompound was the readout of the drug treated group, RLUcontrol was the average value of the solvent control group, and RLUblank was the average value of the cell-free well. The IC50 value was calculated using GraphPad Prism software.
A general note: ATP-based viability assays read luminescence as a measure of living cells.

The mark [1] stands for this setting: Homo sapiens, MDA-MB-436, 168 h, MDA-MB-436 cells.

One may read the IC50 as the concentration at which inhibition is half-maximal. For `CCc1cc2ncc(CN3CCN(c4ccc(C(=O)NC5CN(C(=O)CC67CC8C[C@H](C6)C[C@H](C8)C7)C5)nc4)CC3)cc2[nH]c1=O` [Compound 13, N-(1-(2-((3R,5R)-adamantan-1-yl)acetyl)azetidin-3-yl)-5-(4-((7-ethyl-6-oxo-5,6-dihydro-1,5-naphthyridin-3-yl)methyl)piperazin-1-yl)picolinamide], under setting [1], the half-maximal inhibitory concentration (IC50) was determined as 5 nM. For the same compound, the inhibition at 10 µM (Homo sapiens, 10 μM) is 89.7%.

`CCc1cc2ncc(CN3CCN(c4ccc(NC(=O)c5cnn(C6CCN(c7ccc8c(c7)C(=O)N(C7CCC(=O)NC7=O)C8=O)CC6)c5)nc4)CC3)cc2[nH]c1=O` (stereo not drawn) [Compound 68, 1-(1-(2-(2,6-dioxopiperidin-3-yl)-1,3-dioxoisoindolin-5-yl)piperidin-4-yl)-N-(5-(4-((7-ethyl-6-oxo-5,6-dihydro-1,5-naphthyridin-3-yl)methyl)piperazin-1-yl)pyridin-2-yl)-1H-pyrazole-4-carboxamide]: under setting [1], the IC50 amounted to 12.3 nM. Also, the inhibition at 10 µM (Homo sapiens, 10 μM) came to 88.6%.

Consider `CCc1cc2ncc(CN3CCN(c4ccc(C(=O)N[C@H]5C[C@H](Nc6ccc7c(c6)C(=O)N(C6CCC(=O)NC6=O)C7=O)C5)nc4)CC3)cc2[nH]c1=O` (stereo partly drawn) [Compound 38, N-((1r,3r)-3-((2-(2,6-dioxopiperidin-3-yl)-1,3-dioxoisoindolin-5-yl)amino)cyclobutyl)-5-(4-((7-ethyl-6-oxo-5,6-dihydro-1,5-naphthyridin-3-yl)methyl)piperazin-1-yl)picolinamide], for which the concentration for half-maximal inhibition (IC50) under setting [1] was 12 nM. The inhibition at 10 µM (Homo sapiens, 10 μM) was 77.1%.

Regarding `Cc1nc2ccc(CN3CCN(c4ccc(C(=O)NC5CCN(c6cccc(N7CCC(=O)NC7=O)c6)CC5)nc4F)CC3)c(F)c2[nH]c1=O` [Compound 71, N-(1-(3-(2,4-dioxotetrahydropyrimidin-1(2H)-yl)phenyl)piperidin-4-yl)-6-fluoro-5-(4-((5-fluoro-2-methyl-3-oxo-3,4-dihydroquinoxalin-6-yl)methyl)piperazin-1-yl)picolinamide], the IC50 under setting [1] came to 73.4 nM. In addition, the inhibition at 10 µM (Homo sapiens, 10 μM) was determined as 99%.

On to `CCc1cc2ncc(CN3CCN(c4ccc(C(=O)N[C@H]5CC[C@@H](Nc6ccc7c(c6)C(=O)N(C6CCC(=O)NC6=O)C7=O)CC5)nc4)CC3)cc2[nH]c1=O` (stereo partly drawn) [Compound 27, N-((1s,4s)-4-((2-(-2,6-dioxopiperidin-3-yl)-1,3-dioxoisoindolin-5-yl)amino)cyclohexyl)-5-(4-((7-ethyl-6-oxo-5,6-dihydro-1,5-naphthyridin-3-yl)methyl)piperazin-1-yl)picolinamide], for which the IC50 under setting [1] amounted to 15 nM. The inhibition at 10 µM (Homo sapiens, 10 μM) amounted to 95.8%.

`CCc1cc2ncc(CN3CCN(c4ccc(C(=O)NC5CCN(C6CN(c7cccc8c7C(=O)N(C7CCC(=O)NC7=O)C8=O)C6)CC5)nc4)CC3)cc2[nH]c1=O` (stereo not drawn) [Compound 15, N-(1-(1-(2-(2,6-dioxopiperidin-3-yl)-1,3-dioxoisoindolin-4-yl)azetidin-3-yl)piperidin-4-yl)-5-(4-((7-ethyl-6-oxo-5,6-dihydro-1,5-naphthyridin-3-yl)methyl)piperazin-1-yl)picolinamide]: the half-maximal inhibitory concentration (IC50) under setting [1] was 25 nM. Moreover, the inhibition at 10 µM (Homo sapiens, 10 μM) came out at 87.2%.

On to `CCc1cc2ncc(CN3CCN(c4ccc(C(=O)NC5CN(c6cc7c(cc6F)C(=O)N(C6CCC(=O)NC6=O)C7=O)C5)nc4)CC3)cc2[nH]c1=O` (stereo not drawn) [Compound 17, N-(1-(2-(2,6-dioxopiperidin-3-yl)-6-fluoro-1,3-dioxoisoindolin-5-yl)azetidin-3-yl)-5-(4-((7-ethyl-6-oxo-5,6-dihydro-1,5-naphthyridin-3-yl)methyl)piperazin-1-yl)picolinamide], for which the IC50 under setting [1] amounted to 61 nM. Also, where the note is “Homo sapiens, 10 μM”, the inhibition at 10 µM was 99%.

Turning to `CCc1cc2ncc(CN3CCN(c4ccc(C(=O)NC5CCN(c6ccc7c(c6)C(=O)N(C6CCC(=O)NC6=O)C7)CC5)nc4)CC3)cc2[nH]c1=O` (stereo not drawn) [Compound 48, N-(1-(2-(2,6-dioxopiperidin-3-yl)-3-oxoisoindolin-5-yl)piperidin-4-yl)-5-(4-((7-ethyl-6-oxo-5,6-dihydro-1,5-naphthyridin-3-yl)methyl)piperazin-1-yl)picolinamide], the IC50 under setting [1] was determined as 28 nM. Further, under “Homo sapiens, 10 μM”, the inhibition at 10 µM was 94.6%.

For the compound `CCc1cc2ncc(CN3CCN(c4ccc(C(=O)N[C@H]5C[C@H](Oc6ccc7c(c6)C(=O)N(C6CCC(=O)NC6=O)C7=O)C5)nc4)CC3)cc2[nH]c1=O` (stereo partly drawn) [Compound 59, N-((1r,3r)-3-((2-(2,6-dioxopiperidin-3-yl)-1,3-dioxoisoindolin-5-yl)oxy)cyclobutyl)-5-(4-((7-ethyl-6-oxo-5,6-dihydro-1,5-naphthyridin-3-yl)methyl)piperazin-1-yl)picolinamide], the IC50 under setting [1] is 38 nM. The inhibition at 10 µM (Homo sapiens, 10 μM) stood at 81.7%.

With `CCc1cc2ncc(CN3CC=C(c4ccc(C(=O)NC5CCN(c6ccc7c(c6)C(=O)N(C6CCC(=O)NC6=O)C7=O)CC5)nc4)CC3)cc2[nH]c1=O` (stereo not drawn) [Compound 49, N-(1-(2-(2,6-dioxopiperidin-3-yl)-1,3-dioxoisoindolin-5-yl)piperidin-4-yl)-1′-((7-ethyl-6-oxo-5,6-dihydro-1,5-naphthyridin-3-yl)methyl)-1′,2′,3′,6′-tetrahydro-[3,4′-bipyridine]-6-carboxamide], the IC50 under setting [1] was 101 nM. For the same compound, for the setting “Homo sapiens, 10 μM”, the inhibition at 10 µM turned out to be 93.8%.

As to `CCc1cc2ncc(CN3CCN(c4ccc(C(=O)NC5CCC(Oc6ccc7c(c6)C(=O)N(C6CCC(=O)NC6=O)C7=O)CC5)nc4)CC3)cc2[nH]c1=O` (stereo not drawn) [Compound 67, N-((1s,4s)-4-((2-(2,6-dioxopiperidin-3-yl)-1,3-dioxoisoindolin-5-yl)oxy)cyclohexyl)-5-(4-((7-ethyl-6-oxo-5,6-dihydro-1,5-naphthyridin-3-yl)methyl)piperazin-1-yl)picolinamide], the “Max inh. % 10 μM” value (MDA-MB-436 cells, 10 μM) is recorded as 96.2%. The half-maximal inhibitory concentration (IC50) (MDA-MB-436 cells) was 100 nM.

In the case of `CCc1cc2ncc(CN3CCN(c4ccc(C(=O)N[C@H]5C[C@@H](Nc6cc7c(cc6F)C(=O)N(C6CCC(=O)NC6=O)C7=O)C5)nc4)CC3)cc2[nH]c1=O` (stereo partly drawn) [Compound 41, N-((1s,3s)-3-((2-(2,6-dioxopiperidin-3-yl)-6-fluoro-1,3-dioxoisoindolin-5-yl)amino)cyclobutyl)-5-(4-((7-ethyl-6-oxo-5,6-dihydro-1,5-naphthyridin-3-yl)methyl)piperazin-1-yl)picolinamide], under setting [1], the IC50 was 11 nM. In addition, the inhibition at 10 µM (Homo sapiens, 10 μM) came out at 85.7%.

For the compound `CCc1cc2ncc(CN3CCN(c4ccc(C(=O)N[C@H]5CCN(c6ccc7c(c6)C(=O)N(C6CCC(=O)NC6=O)C7=O)C5)nc4)CC3)cc2[nH]c1=O` (stereo partly drawn) [Compound 21, N-((3S)-1-(2-(2,6-dioxopiperidin-3-yl)-1,3-dioxoisoindolin-5-yl)pyrrolidin-3-yl)-5-(4-((7-ethyl-6-oxo-5,6-dihydro-1,5-naphthyridin-3-yl)methyl)piperazin-1-yl)picolinamide], under setting [1], the half-maximal inhibitory concentration (IC50) was 25 nM. The inhibition at 10 µM (Homo sapiens, 10 μM) amounted to 88.9%.

With `CCc1cc2ncc(CN3CCN(c4ccc(C(=O)N[C@H]5CCN(c6cc7c(cc6F)C(=O)N(C6CCC(=O)NC6=O)C7=O)C5)nc4)CC3)cc2[nH]c1=O` (stereo partly drawn) [Compound 51, N-((3S)-1-(2-(2,6-dioxopiperidin-3-yl)-6-fluoro-1,3-dioxoisoindolin-5-yl)pyrrolidin-3-yl)-5-(4-((7-ethyl-6-oxo-5,6-dihydro-1,5-naphthyridin-3-yl)methyl)piperazin-1-yl)picolinamide], the 50% inhibitory concentration (IC50) under setting [1] was determined as 19 nM. Further, the inhibition at 10 µM (Homo sapiens, 10 μM) stood at 97.5%.

In the case of `CCc1cc2ncc(CN3CCN(c4ccc(C(=O)NC5CCN(c6ncc(N7CCC(=O)NC7=O)cn6)CC5)nc4)CC3)cc2[nH]c1=O` [Compound 69, N-(1-(5-(2,4-dioxotetrahydropyrimidin-1(2H)-yl)pyrimidin-2-yl)piperidin-4-yl)-5-(4-((7-ethyl-6-oxo-5,6-dihydro-1,5-naphthyridin-3-yl)methyl)piperazin-1-yl)picolinamide], the IC50 under setting [1] came out at 15.3 nM. Further, the inhibition at 10 µM (Homo sapiens, 10 μM) was found to be 88.4%.

On to `CCc1cc2ncc(CN3CCN(c4ccc(C(=O)NC5CC(Oc6ccc7c(c6)C(=O)N(C6CCC(=O)NC6=O)C7=O)C5)nc4)CC3)cc2[nH]c1=O` (stereo not drawn) [Compound 60, N-((1s,3s)-3-((2-(2,6-dioxopiperidin-3-yl)-1,3-dioxoisoindolin-5-yl)oxy)cyclobutyl)-5-(4-((7-ethyl-6-oxo-5,6-dihydro-1,5-naphthyridin-3-yl)methyl)piperazin-1-yl)picolinamide], for which the IC50 under setting [1] came out at 33 nM. In addition, the inhibition at 10 µM (Homo sapiens, 10 μM) was found to be 82%.

For the compound `CCc1cc2ncc(CN3CCN(c4ccc(C(=O)NC5CCN(c6cccc7c6C(=O)N(C6CCC(=O)NC6=O)C7=O)CC5)nc4)CC3)cc2[nH]c1=O` (stereo not drawn) [Compound 19, N-(1-(2-(2,6-dioxopiperidin-3-yl)-1,3-dioxoisoindolin-4-yl)piperidin-4-yl)-5-(4-((7-ethyl-6-oxo-5,6-dihydro-1,5-naphthyridin-3-yl)methyl)piperazin-1-yl)picolinamide], the 50% inhibitory concentration (IC50) under setting [1] stood at 21 nM. For the same compound, for the setting “Homo sapiens, 10 μM”, the inhibition at 10 µM was 90.3%.

With `CCc1cc2ncc(CN3CCN(c4ccc(C(=O)NC5CN(c6cccc7c6C(=O)N(C6CCC(=O)NC6=O)C7=O)C5)nc4)CC3)cc2[nH]c1=O` (stereo not drawn) [Compound 16, N-(1-(2-(2,6-dioxopiperidin-3-yl)-1,3-dioxoisoindolin-4-yl)azetidin-3-yl)-5-(4-((7-ethyl-6-oxo-5,6-dihydro-1,5-naphthyridin-3-yl)methyl)piperazin-1-yl)picolinamide], under setting [1], the concentration for half-maximal inhibition (IC50) came out at 15 nM. The inhibition at 10 µM (Homo sapiens, 10 μM) turned out to be 78.8%.
